Source: ChEMBL document CHEMBL4390683, “Design, synthesis, and evaluation of α-galactopyranosylceramide mimics promoting Th2 cytokines production” (2019)

How the values were obtained:
Assay type in all cases: functional
[1] = test system: Mus musculus; assay: Induction of serum IFNgamma production in C57BL/6 mouse assessed as serum IFNgamma level at 100 ug/kg, ip and measured for 48 hrs by AUC method
[2] = test system: Mus musculus; assay: Induction of serum IFNgamma production in C57BL/6 mouse assessed as serum IFNgamma level at 100 ug/kg, ip and measured for 48 hrs by peak value method relative to KRN7000
[3] = test system: Mus musculus; assay: Induction of serum IL-4 production in C57BL/6 mouse assessed as serum IL-4 level at 100 ug/kg, ip and measured for 48 hrs by peak value method relative to KRN7000
[4] = test system: Mus musculus; assay: Induction of serum IL-4 production in C57BL/6 mouse assessed as serum IL-4 level at 100 ug/kg, ip and measured for 48 hrs by peak value method; design: unit not given here
[5] = test system: Mus musculus; assay: Induction of serum IL-4 production in C57BL/6 mouse assessed as serum IL-4 level at 100 ug/kg, ip and measured for 48 hrs by AUC method
[6] = test system: Mus musculus; assay: Induction of serum IFNgamma production in C57BL/6 mouse assessed as serum IFNgamma level at 100 ug/kg, ip and measured for 48 hrs by peak value method
[7] = test system: Mus musculus; assay: Ratio of induction activity for IL-4 production in C57BL/6 mouse at 100 ug/kg, ip after 48 hrs by peak value method to induction activity for IFN-gamma production in C57BL/6 mouse at 100 ug/kg, ip after 48 hrs by peak value method
[8] = test system: Mus musculus; assay: Induction of serum IL-4 production in C57BL/6 mouse at 100 ug/kg, ip and measured for 48 hrs by AUC method relative to KRN7000
[9] = test system: Mus musculus; assay: Induction of serum IFNgamma production in C57BL/6 mouse at 100 ug/kg, ip and measured for 48 hrs by AUC method relative to KRN7000
[10] = test system: Mus musculus; assay: Ratio of induction activity for IL-4 production in C57BL/6 mouse at 100 ug/kg, ip after 48 hrs by AUC method to induction activity for IFN-gamma production in C57BL/6 mouse at 100 ug/kg, ip after 48 hrs by AUC method

SMILES | AUC [1] [pg·h/mL] | Activity [2] [%] | Activity [3] [%] | Activity [4] | Activity [5] [pg·h/mL] | Activity [6] [pg/mL] | Ratio [7] | Activity [8] [%] | Activity [9] [%] | Ratio [10]
CCCCCCCCCCCCCCCCCCCCCCCC(=O)N[C@@H](CO[C@H]1O[C@H](CNC(=O)CCc2ccc(O)cc2)[C@H](O)[C@H](O)[C@H]1O)[C@H](O)[C@H](O)CCCCC | 4380 | 25 | 235 | 657.75 | 3120.95 | 169 | 9.28 | 234 | 25 | 9.3
CCCCCCCCCCCCCCCCCCCCCCCCCC(=O)N[C@@H](CO[C@H]1O[C@H](CO)[C@H](O)[C@H](O)[C@H]1O)[C@H](O)[C@H](O)CCCCCCCCCCCCCC [RGI-7000] | 17400 | – | – | 280 | 1331 | 666 | 1 | – | – | 1
CCCCCCCCCCCCCCCCCCCCCCCC(=O)N[C@@H](CO[C@H]1O[C@H](CNC(=O)[C@@H](N)CCC(=O)O)[C@H](O)[C@H](O)[C@H]1O)[C@H](O)[C@H](O)CCCCC | 3520 | 36 | 108 | 303.26 | 2043.36 | 241 | 2.99 | 153 | 20 | 7.59
CCCCCCCCCCCCCCCCCCCCCCCC(=O)N[C@@H](CO[C@H]1O[C@H](CO)[C@H](O)[C@H](O)[C@H]1O)[C@H](O)[C@H](O)CCCCC | 6780 | 50 | 244 | – | – | 336 | 4.85 | 251 | 39 | 6.45
